Test results from patent US5728686A, “Alkylxanthine phosphonates and alkylxanthine phosphine oxides and their use as pharmaceuticals” (Hoechst Aktiengesellschaft, priority 1996, dated 1998).
Converted amounts (≈) assume the structure as drawn.

Tests used:
[1] = system: soleus muscle; experiment: rat muscle function test: muscle weight (atrophy of immobilized extremity); assay type: in vivo, male Wistar rats; details: oral, 1x per day for 3 weeks, as a rule 25 mg/kg, difference ≤25% classified as an effect
Procedure, shortened: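 Male Wistar rats (~300 g) had the right hind limb immobilized in a padded plastic cast for 3 weeks with daily oral dosing by stomach tube, as a rule 25 mg/kg in carboxymethylcellulose. Soleus weight of the immobilized limb was compared with the contralateral limb; a difference of ≤25% was classed as an effect.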

[2] = system: Endotoxin (LPS) from Salmonella abortus equi; experiment: effect on endotoxin fatality (LPS-induced septic shock); assay type: in vivo, female NMRI mice; details: 25 mg/kg i.p. at the same time as LPS 60 mg/kg i.p.; 72 hours; vs placebo control
Description: 2. Test for effect on endotoxin fatality
Individual injections of lipopolysaccharide (LPS), from gram-negative bacteria, lead via a series of various symptoms to septic shock, which usually turns out to be fatal. Endotoxin (LPS) from Salmonella abortus equi in a dose of 60 mg/kg i.p. leads to shock and to death with at most 72 h p.a. (the dose of 60 mg/kg corresponds to approximately 1.20 mg of LPS/animal).
The experimental animals used are female NMRI mice from the Hoechst AG/Hattersheim animal breeding unit having a body weight of 22 to 24 g.
The test substances administered intraperitoneally (i.p.) in an administration volume of 10 ml/kg at the same time as the LPS. The number of surviving animals after 72 hours' LPS administration is indicated in comparison to a placebo control. The number of tested animals per group is 5; dose 25 mg/kg.

[3] = system: isolated guinea pig trachea, agonist calcium ionophore A23187; experiment: antagonist of calcium ionophore A23187-induced contraction of isolated guinea pig trachea; assay type: cell-based; details: Cavia porcellus, 37° C., read-out: Anticontractile action (trachea), Ca ionophore: concentration range for dilatation corresponding to ED50 range
Source text: (§1) 3. Activity as antagonist of the contraction of isolated guinea pig trachea
(§2) The compounds of the formula I are used as antagonists of the contraction of isolated guinea pig trachea. The agonists employed were PGF2α (Upjohn, Germany), calcium ionophore A23187 (Calbiochem, Bad Soden, Germany), and substance P (American Peptide Comp., USA):
b) Calcium ionophore A23187 (Calbiochem, Bad Soden) acts by increased uptake of calcium ions, and an activation of all calcium-dependent signal cascades in the cell. Lipoxygenase inhibitors, in particular, and generally antiinflammatory substances show effects in this model.
(§3) Preparation of the organ sections and experimental procedure:
(§4) The guinea pig is sacrificed by means of terminal laughing gas anaesthesia. The trachea is exposed along its entire length and cut into 15 individual cartilage rings. 5 rings in each case are tied together to give a chain and fixed in the organ bath under a preload of 3 g. After an equilibration time of 45 minutes, a contraction is produced using the agonist. The antagonist (test preparation) is added cumulatively on the plateau of the maximum. Evaluation is carried out in % force change relative to the contraction maximum. The experimental procedure is carried out at 37° C.; the physiological nutrient solution used is a modified Krebs-Henseleit solution through which is bubbled 95% by volume of O2, 5% by volume of CO2.
(§5) Experimental animals: albino guinea pigs (Hattersheim Animal Breeding Institute, Kastengrund, Germany), weight: 200 to 300 g, sex male or female.
(§6) Vehicle: double-distilled water, ethanol or isopropanol; administration: into the organ bath number of administration: cumulative, in SP individual doses
(§7) All numerical values are indicated in the unit μg/ml and relate to the concentration range of the tested compound of the formula I according to the invention (see example numbers in Table 1) which is necessary in order to cause a dilatation which corresponds to the ED50 range.

[4] = system: isolated guinea pig trachea, agonist substance P; experiment: antagonist of substance P-induced contraction of isolated guinea pig trachea; assay type: cell-based; details: Cavia porcellus, individual doses, 37° C., read-out: Anticontractile action (trachea), SP antagonism: concentration range for dilatation corresponding to ED50 range
Source text: as §1, §2
The antagonism is possible on the one hand due to specific receptor antagonists, and on the other hand also due to inhibition of the subsequent signal pathway. Preparations which directly or indirectly increase the intracellular concentration of cyclic nucleotides in particular show spasmolytic properties here.
as §3, §4, §5, §6, §7

[5] = system: isolated guinea pig lung strips, Platelet activating factor (PAF); experiment: antagonist of PAF-induced contraction of isolated guinea pig lung strips; assay type: cell-based; details: Cavia porcellus, read-out: Anticontractile action (lung), PAF: concentration range corresponding to the IC50 value
Procedure, shortened: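 Guinea pig lung strips, 3 mm wide, held at 4 g preload in modified Krebs-Henseleit at 37° C, gassed 95% O2/5% CO2, contracted by PAF or LTD4. Compound given cumulatively at 1, 3, 6 and 10 μg/ml; value is the concentration in μg/ml giving IC50-level effect.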

Q: Which “Muscle weight (right/left difference)” value [1] does the source give for `CCOP(=O)(CCCn1cnc2c1c(=O)[nH]c(=O)n2C)OCC` [Example 2, Diethyl [4-(3-methylxanthin-7-yl)propyl]phosphonate] here?
A: -22 Δ %

Q: And the Inhibition of mortality [2]?
A: 100%

Q: And the EC50 [3]?
A: > 10 µg/mL

Q: And the EC50 [4]?
A: 10 to 30 µg/mL (≈ 29 to 87.1 µM)

Q: What about the IC50 [5] of the same molecule?
A: 3 to 6 µg/mL (≈ 8.71 to 17.4 µM)
